The record followed here is ChEMBL document CHEMBL4422675, “Pyrrolinone derivatives as a new class of P2X3 receptor antagonists Part 2: Discovery of orally bioavailable compounds” (Bioorg Med Chem Lett, 2019).

Data set [1] can be described thus: Half life in rat at 0.5 mg/kg, iv or 1 mg/kg, po. In kind it is ADME, organism-based. The note with it: in vivo.
Data set [2] in a line: Oral bioavailability in rat at 1 mg/kg. The note with it: in vivo. In kind it is ADME, organism-based.
The next data set is described as follows: in vivo. The note with it: rat, iv, 0.5 mg/kg.
The nature of data set [3]: Total clearance in rat at 1 mg/kg, iv. It counts as ADME, organism-based. The note with it: in vivo.
A short description of data set [4]: Half life in rat at 1 mg/kg, iv. The note with it: in vivo. In kind it is ADME, organism-based.
A short description of data set [5]: AUC in rat at 3 mg/kg, po. It counts as ADME, organism-based. The note with it: in vivo.
A short description of data set [6]: Cmax in rat at 3 mg/kg, po. In kind it is ADME, organism-based. Also on record: dose 3 mg/kg, route oral. The note with it: in vivo.
Data set [7] is described as follows: Oral bioavailability in rat at 3 mg/kg. The following applies: in vivo. It counts as ADME, organism-based.

The term half-life denotes the time needed for the level to fall by half in the phase considered. Low values mean rapid decline, high ones slow decline. A word on the bioavailability: it is dose-corrected exposure relative to a reference, in per cent. A higher bioavailability goes with good availability. On to `COc1ccc(C(=O)C2=C(O)C(=O)N(c3ccc(-c4ccon4)cc3)C2c2ccccc2OCCO)cc1` (stereo not given), for which, in data set [1], the half-life was 0.5 h. In data set [2], this molecule showed a bioavailability of 9%.
By clearance is commonly meant a measure of how efficiently the substance is removed, as volume per time. Higher therefore signals efficient removal. In data set [1], `CC(C)(C)C(=O)C1=C(O)C(=O)N(c2ccc(-c3ccon3)cc2)C1c1ccccc1OCCO` (stereo not given) gave a half-life of 2.1 h. The bioavailability in data set [2] was found to be 49.9%. Besides, in “in vivo”, the clearance was 2.9 mL/min/kg.
The molecule `COc1ccccc1C1C(C(=O)C(C)(C)C)=C(O)C(=O)N1c1ccc(-c2ccon2)cc1` (stereo not given) showed a half-life in data set [1] of 2.6 h. This molecule also showed a bioavailability in data set [2] of 77.9%. The clearance in “in vivo” was 1.3 mL/min/kg.
For `CCC(CC)C1C(C(=O)c2ccc(OC)cc2)=C(O)C(=O)N1c1ccc(-c2ccon2)cc1` (stereo not given) the same measures were 4.2 h, 18.9% and 5.1 mL/min/kg.
The matching figures for `O=C(C1=C(O)C(=O)N(c2ccc(-c3ccon3)cc2)C1C1CCCCC1)c1ccc(CO)cc1` (stereo not given): 1.4 h, 6.7% and 3.8 mL/min/kg.
The matching figures for `CN(C)CCOc1ccccc1C1C(C(=O)C(C)(C)C)=C(O)C(=O)N1c1ccc(-c2ccsc2)cc1` (stereo not given): 1.5 h, 15.5% and 7.3 mL/min/kg.
For orientation: AUC means the area under the concentration-time curve, a measure of exposure. Usually Cmax stands for the highest concentration seen after dosing. Turning to `COc1ccccc1[C@@H]1C(C(=O)C(C)C)=C([O-])C(=O)N1c1ccc(-c2ccsc2)cc1.[Na+]`, the clearance in data set [3] was found to be 0.39 mL/min/kg. The same molecule gave a half-life in data set [4] of 3.2 h. The molecule also gave an AUC in data set [5] of 48400 ng·h/mL. This molecule registered a Cmax in data set [6] of 4230 ng/mL. In data set [7], this molecule returned a bioavailability of 37.4%.
`COc1ccc(C(=O)C2=C(O)C(=O)N(c3ccc(-c4ccon4)cc3)C2C2CCCCC2)cn1` (stereo not given) showed a half-life in data set [1] of 1.4 h. In data set [2], this molecule yielded a bioavailability of 28.1%. In “in vivo”, this molecule registered a clearance of 4.6 mL/min/kg.
Consider `CC(C)(C)C(=O)C1=C(O)C(=O)N(c2ccc(-c3ccsc3)cc2)C1c1ccccc1OCCO` (stereo not given), for which the half-life in data set [1] is 3.3 h. In data set [2], this molecule yielded a bioavailability of 39.5%.
Molecule `CC(C)(C)C(=O)C1=C(O)C(=O)N(c2ccc(-c3cccs3)cc2)C1c1ccccc1OCCO` (stereo not given) gave a half-life in data set [1] of 2 h. The molecule also showed a bioavailability in data set [2] of 65.2%. The clearance in “in vivo” was 1.3 mL/min/kg.
For `CC(C)C(=O)C1=C(O)C(=O)N(c2ccc(-c3ccsc3)cc2)C1c1ccccc1OCC[S+](C)[O-]` (stereo not given) the same measures were 1.1 h, 0.7% and 23.2 mL/min/kg.
As for `O=C(O)c1ccc(C(=O)C2=C(O)C(=O)N(c3ccc(-c4ccon4)cc3)C2C2CCCCC2)cc1` (stereo not given), the half-life in data set [1] was 1.9 h. The molecule also gave a bioavailability in data set [2] of 3.7%.
Consider `CC(C)(C)C(=O)C1=C(O)C(=O)N(c2ccc(-c3ccsc3)cc2)C1c1ccccc1OCC(=O)O` (stereo not given), for which, in data set [1], the half-life was 4.2 h. The molecule further returned a bioavailability in data set [2] of 5.2%.
In turn, `COc1ccc(C(=O)C2=C(O)C(=O)N(c3ccc(-c4ccon4)cc3)C2c2ccccc2OC)cc1` (stereo not given) gave a half-life in data set [1] of 0.5 h. Besides, the bioavailability in data set [2] was found to be 19.9%. The clearance in the data set “in vivo” amounted to 8.8 mL/min/kg.
For `COc1ccccc1C1C(C(=O)C(C)C)=C(O)C(=O)N1c1ccc(-c2ccsc2)cc1` (stereo not given) the same measures were 6.1 h, 20% and 0.3 mL/min/kg.
As for `CC(C)C(=O)C1=C(O)C(=O)N(c2ccc(-c3ccsc3)cc2)C1c1ccccc1OCCO` (stereo not given), in data set [1], the half-life was 1 h. The bioavailability in data set [2] came out at 40.8%.
On to `CNC(=O)c1ccc(C(=O)C2=C(O)C(=O)N(c3ccc(-c4ccon4)cc3)C2C2CCCCC2)cc1` (stereo not given), for which, in data set [1], the half-life was 0.7 h. Moreover, the bioavailability in data set [2] amounted to 1.6%.
`C[S+]([O-])CCOc1ccccc1C1C(C(=O)C(C)(C)C)=C(O)C(=O)N1c1ccc(-c2ccsc2)cc1` (stereo not given) had a half-life in data set [1] of 1.4 h. This molecule also yielded a bioavailability in data set [2] of 23.2%. In “in vivo”, this molecule had a clearance of 13.7 mL/min/kg.
